Test results: the supplement of paper PMC10307832

Columns and labels:
Test in all cases: relative viability (nuclei count vs DMSO), 5 days (fraction); higher = more cells survive
CX-5461 + Linsitinib = compound: Cc1cnc(CNC(=O)c2c(=O)c3ccc(N4CCCN(C)CC4)nc3n3c2sc2ccccc23)cn1 [CX-5461] + C[C@]1(O)C[C@@H](c2nc(-c3ccc4ccc(-c5ccccc5)nc4c3)c3c(N)nccn32)C1 [Linsitinib] (partner 1 µM)
Procedure, shortened: (§1)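 Lung cancer cell lines in 1536-well plates got either a single drug or a fixed anchor-drug dose together with five library-drug doses (not always all listed) in √10 steps, by pin tool, on the day after seeding. Nuclei were counted after 5 days, and relative viability is the treated-to-vehicle ratio of nuclei counts. Values are medians of duplicate plates.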

IMD-0354 + Crizotinib = compound: O=C(Nc1cc(C(F)(F)F)cc(C(F)(F)F)c1)c1cc(Cl)ccc1O [IMD-0354] + C[C@@H](Oc1cc(-c2cnn(C3CCNCC3)c2)cnc1N)c1c(Cl)ccc(F)c1Cl [Crizotinib] (partner 1 µM)
Procedure, shortened: as §1

IMD-0354 + Pemetrexed = compound: O=C(Nc1cc(C(F)(F)F)cc(C(F)(F)F)c1)c1cc(Cl)ccc1O [IMD-0354] + Nc1nc2[nH]cc(CCc3ccc(C(=O)N[C@@H](CCC(=O)O)C(=O)O)cc3)c2c(=O)[nH]1 [Pemetrexed] (partner 0.2 µM)
Procedure, shortened: as §1

IMD-0354 + Olaparib = compound: O=C(Nc1cc(C(F)(F)F)cc(C(F)(F)F)c1)c1cc(Cl)ccc1O [IMD-0354] + O=C(c1cc(Cc2n[nH]c(=O)c3ccccc23)ccc1F)N1CCN(C(=O)C2CC2)CC1 [Olaparib] (partner 8 µM)
Procedure, shortened: as §1

| Cell Line | relative viability (CX-5461 + Linsitinib; first compound 0.01 µM) | relative viability (CX-5461 + Linsitinib; first compound 0.03162 µM) | relative viability (CX-5461 + Linsitinib; first compound 0.1 µM) | relative viability (CX-5461 + Linsitinib; first compound 0.3162 µM) | relative viability (CX-5461 + Linsitinib; first compound 1 µM) | relative viability (IMD-0354 + Crizotinib; first compound 0.04 µM) | relative viability (IMD-0354 + Crizotinib; first compound 0.1265 µM) | relative viability (IMD-0354 + Crizotinib; first compound 0.4 µM) | relative viability (IMD-0354 + Crizotinib; first compound 1.265 µM) | relative viability (IMD-0354 + Crizotinib; first compound 4 µM) | relative viability (IMD-0354 + Pemetrexed; first compound 0.04 µM) | relative viability (IMD-0354 + Pemetrexed; first compound 0.1265 µM) | relative viability (IMD-0354 + Pemetrexed; first compound 0.4 µM) | relative viability (IMD-0354 + Pemetrexed; first compound 1.265 µM) | relative viability (IMD-0354 + Pemetrexed; first compound 4 µM) | relative viability (IMD-0354 + Olaparib; first compound 0.04 µM) | relative viability (IMD-0354 + Olaparib; first compound 0.1265 µM) | relative viability (IMD-0354 + Olaparib; first compound 0.4 µM) | relative viability (IMD-0354 + Olaparib; first compound 1.265 µM) | relative viability (IMD-0354 + Olaparib; first compound 4 µM) |
| --- | --- | --- | --- | --- | --- | --- | --- | --- | --- | --- | --- | --- | --- | --- | --- | --- | --- | --- | --- | --- |
| COR-L23 | 0.908 | 1.05 | 0.651 | 0.969 | 0.472 | 0.616 | 0.532 | 0.302 | 0.193 | 0.131 | 0.205 | 0.202 | 0.206 | 0.182 | 0.108 | 0.298 | 0.32 | 0.286 | 0.104 | 0.127 |
| NCI-H2087 | 1.03 | 0.999 | 0.946 | 0.811 | 1.05 | 0.822 | 0.827 | 0.265 | 0.156 | 0.152 | 0.721 | 0.688 | 0.345 | 0.0911 | 0.106 | 0.517 | 0.457 | 0.207 | 0.0984 | 0.122 |
| LC-2-ad | 0.808 | 0.886 | 0.829 | 0.858 | 0.833 | 0.431 | 0.466 | 0.37 | 0.358 | 0.239 | 0.29 | 0.268 | 0.276 | 0.189 | 0.145 | 0.699 | 0.71 | 0.466 | 0.364 | 0.223 |
| NCI-H1915 | 1.1 | 1.13 | 1.12 | 1.12 | 1.16 | 0.787 | 0.906 | 0.527 | 0.434 | 0.194 | 0.557 | 0.469 | 0.357 | 0.399 | 0.163 | 0.264 | 0.263 | 0.235 | 0.175 | 0.136 |
| NCI-H1944 | 1.27 | 1.26 | 1.05 |  | 1.18 | 0.947 | 1.07 |  | 1.04 | 0.157 | 0.593 | 0.683 | 0.642 | 0.146 | 0.122 | 0.377 | 0.331 | 0.3 | 0.302 | 0.191 |
| NCI-H2023 | 0.661 | 0.744 |  | 0.599 | 0.162 | 0.671 | 0.618 | 0.432 | 0.172 | 0.0868 | 0.217 | 0.212 | 0.118 | 0.0926 | 0.103 | 0.504 | 0.427 | 0.315 | 0.0756 | 0.183 |
| COR-L 105 | 1.05 | 0.93 | 1.08 | 0.852 | 0.59 | 0.856 | 0.906 | 0.538 | 0.55 | 0.261 | 1.14 | 1.23 | 0.802 | 0.699 | 0.402 | 0.644 | 0.666 | 0.62 | 0.562 | 0.443 |
| RERF-LC-KJ | 0.834 | 0.944 | 0.972 | 0.866 | 0.797 | 0.861 | 0.893 | 0.495 | 0.311 | 0.196 | 0.536 | 0.462 | 0.376 | 0.126 | 0.153 | 1.08 | 0.969 | 0.415 | 0.169 | 0.229 |
| LXF-289 | 0.963 | 1 | 1.04 | 0.903 | 0.949 | 0.834 | 0.803 | 0.575 | 0.229 | 0.069 | 0.898 | 0.884 | 0.868 | 0.26 | 0.129 | 0.959 | 0.945 | 0.783 | 0.418 | 0.0925 |
| PC-14 | 0.954 | 0.992 | 1.03 | 0.987 | 0.878 | 0.988 | 0.92 | 0.357 | 0.387 | 0.179 | 0.128 | 0.116 | 0.105 | 0.14 | 0.0524 | 0.223 | 0.276 | 0.269 | 0.0804 | 0.126 |
| NCI-H650 | 0.955 | 0.999 | 0.697 | 0.571 | 0.373 | 0.844 | 0.714 | 0.542 | 0.528 | 0.2 | 1.05 | 0.97 | 0.793 | 0.436 | 0.169 | 0.329 | 0.355 | 0.32 | 0.211 | 0.144 |
| NCI-H1666 | 0.787 | 0.982 |  | 0.82 | 0.459 | 0.867 | 1.02 | 0.94 | 0.251 | 0.151 | 0.905 | 1 | 0.708 | 0.832 | 0.824 | 0.752 | 0.748 | 0.857 | 0.703 | 0.562 |
| NCI-H2085 | 0.923 | 1.03 | 0.911 | 0.952 | 0.864 | 0.613 | 0.753 | 0.788 | 0.511 | 0.315 | 0.954 | 0.846 | 0.644 | 0.294 | 0.276 | 0.785 | 0.795 | 0.713 | 0.412 | 0.377 |
| NCI-H1734 | 1.01 | 0.97 | 0.901 | 0.772 | 0.868 | 0.803 | 0.685 | 0.4 | 0.422 | 0.244 | 0.449 | 0.458 | 0.369 | 0.23 | 0.129 | 0.608 | 0.68 | 0.465 | 0.421 | 0.175 |
| NCI-H2126 | 0.728 | 0.727 | 0.71 | 0.731 | 0.679 | 1.03 | 0.997 | 0.878 | 0.6 | 0.322 | 0.74 | 0.722 | 0.569 | 0.37 | 0.266 | 1 | 0.908 | 0.68 | 0.512 | 0.364 |
| EMC-BAC-2 | 0.843 | 0.914 | 0.828 | 0.824 | 0.815 | 0.869 | 0.677 | 0.586 | 0.415 | 0.27 | 0.398 | 0.399 | 0.338 | 0.319 | 0.306 | 0.456 | 0.511 | 0.327 | 0.226 | 0.26 |
| NCI-H1993 | 0.743 | 0.681 | 0.722 | 0.712 | 0.643 | 0.907 | 0.824 | 0.658 | 0.508 | 0.557 | 0.578 | 0.565 | 0.518 | 0.344 | 0.412 | 0.917 | 0.982 | 0.819 | 0.651 | 0.541 |
| NCI-H520 | 0.877 | 0.916 | 0.934 | 0.889 | 0.701 | 0.959 | 0.672 | 0.44 | 0.459 | 0.239 | 0.668 | 0.838 | 0.392 | 0.149 | 0.139 | 0.325 | 0.317 | 0.318 | 0.146 | 0.189 |
| NCI-H647 | 1.15 | 1.25 | 1.1 | 1.25 | 0.442 | 1.37 | 1.2 | 0.505 | 0.168 | 0.185 | 0.182 | 0.148 | 0.185 | 0.111 | 0.0986 | 0.67 | 0.485 | 0.292 | 0.0684 | 0.113 |
| NCI-H1792 | 0.54 | 0.58 | 0.485 | 0.565 | 0.545 | 1.14 | 0.959 | 0.696 | 0.512 | 0.391 | 1.01 | 0.57 | 0.493 | 0.163 | 0.152 | 0.393 | 0.389 | 0.236 | 0.21 | 0.172 |
| SW 1573 | 0.782 | 0.84 | 0.977 | 0.828 | 0.907 | 0.819 | 0.763 | 0.408 | 0.268 | 0.115 | 0.872 | 0.799 | 0.271 | 0.131 | 0.0794 | 0.537 | 0.467 | 0.264 | 0.0858 | 0.0862 |
| NCI-H2009 | 1.24 | 1.14 | 1.18 | 1.19 | 0.804 | 1.1 | 0.981 | 0.698 | 0.165 | 0.111 | 0.934 | 1 | 0.722 | 0.324 | 0.124 | 0.625 | 0.694 | 0.591 | 0.366 | 0.115 |
| LOU-NH91 | 1 | 1.04 | 0.999 | 0.715 | 0.842 | 0.754 | 0.732 | 0.538 | 0.345 | 0.287 | 0.359 | 0.472 | 0.25 | 0.206 | 0.304 | 0.938 | 0.447 | 0.285 | 0.147 | 0.282 |
| NCI-H2405 | 1.03 | 0.898 | 0.993 | 0.897 | 0.757 | 0.915 | 0.86 | 0.491 | 0.572 | 0.304 | 1.16 | 0.965 | 0.49 | 0.271 | 0.277 | 0.905 | 0.866 | 0.491 | 0.258 | 0.258 |
| LCLC-97TM1 | 0.176 | 0.205 | 0.168 |  | 0.212 |  | 0.432 | 0.211 | 0.265 | 0.146 | 0.202 | 0.162 | 0.102 | 0.0974 | 0.0756 | 0.407 | 0.387 | 0.213 | 0.154 | 0.141 |
| NCI-H596 | 1.11 | 1.06 | 1.21 | 1.15 | 1.1 | 0.928 | 1.04 | 0.858 | 0.955 | 0.451 | 0.546 | 0.526 | 0.344 | 0.461 | 0.396 | 0.758 | 0.635 | 0.701 | 0.818 | 0.463 |
| H3255 | 1.04 | 1.01 | 0.935 | 0.735 | 0.988 | 0.781 | 0.885 | 0.555 | 0.338 | 0.285 | 0.588 | 0.587 | 0.518 | 0.426 | 0.318 | 0.49 | 0.541 | 0.435 | 0.37 | 0.318 |
